Columns and labels:
[1] = test system: dopamine neurons in the midbrain VTA region; test: Patch clamp of spontaneous action potential (dopamine secretion normalization); type: in vivo, mouse; settings: 250 mg/kg to 500 mg/kg
Procedure: A mouse model of autism spectrum disorder was created with the method described in Example 1.1. The 3-week-old male mice having autism spectrum disorder were divided into a group (n=6) orally injected with 250 mg/kg of AST-001 for 2 weeks and a group (n=6) orally injected with 500 mg/kg of AST-001 for 2 weeks, and were orally administered with AST-001. The 3-week-old male normal mouse group and the autism spectrum disorder mouse group (n=6) were orally administered with water once a day for 2 weeks and then used as a control group (n=6) in the behavioral experiment. The spontaneous action potential of dopamine neurons in the midbrain VTA region of the 5-week-old normal mice and the 5-week-old mice having autism spectrum disorder was checked with a patch clamp. It turned out that mice having autism spectrum disorder show a reduced firing rate of the spontaneous action potential as compared with the normal mice (see FIG. 3A). As a result, dopamine secretion has been reduced in a mouse having autism spectrum disorder, and it can be seen that the reduced dopamine secretion has caused behavioral abnormalities related to the dopamine pathway, such as attention, reward, and cognition.

[2] = test system: pediatric patients having autism spectrum disorder; test: Clinical trial of 52-week continuous administration, safety
[3] = test system: healthy adults; test: Safety evaluation in healthy adults; type: in vivo, human; settings: single oral up to 30 g per day; 15 g twice a day for 7 days
Procedure: 24 hours before the administration with AST-001 (main component: L-serine), blood was collected to measure the concentration of L-serine. 60 g of an AST-001 powder is a white homogeneous powder without having foreign substances, divided and repackaged into an HDPE bottle or a bottle made of the same material, and the composition of this drug is such that 1,000 mg of the main component L-serine is comprised per 1,000 mg dose. […] As a result, it was confirmed that AST-001 can be safely administered within a dose range of 10 to 30 g per day for indications that require repeated administration. The results of the pharmacokinetic analysis in the AST-001 repeated administration test in healthy adult males are as shown in Table 2 below.

[4] = test system: mice having autism spectrum disorder; test: Spatial memory experiment (Y-maze test); type: in vivo, mouse; settings: 180, 300, 480 or 600 mg/kg orally for 28 days; with increasing dosage
Procedure: Mice having autism spectrum disorder were created by the same method as in Example 1.1. The 3-week-old male mice having autism spectrum disorder were orally injected with 180, 300, 480, or 600 mg/kg of L-serine for 28 days and then subjected to a spatial memory test. Normal mice were used as a control group. Eight mice were used for each experimental group. The spatial working memory of the mice was evaluated through the Y-maze test. As the administration dosage of L-serine increased, the value of spontaneous alteration, which is a measure of spatial memory, increased (see FIG. 7).

[5] = test system: mPFC pyramidal neurons; test: Patch clamp of intrinsic excitability in BTBR mice; type: in vivo, mouse; settings: 500 mg/kg orally for 2 weeks
Procedure: BTBR T+tf/J (BTBR), which is an animal of autism spectrum disorder, and C57BL/6 mice (used as a control group) were purchased from Jackson Laboratories. […] However, in a case where BTBR mice were orally administered with 500 mg/kg of AST-001 for 2 weeks, and then the firing rate of the action potential was measured, the firing rate of the action potential in the BTBR mice and the control group mice turned out to be similar (see FIG. 5B).

[6] = test system: cortical layer 5 pyramidal neurons; test: Synaptic pruning: dendritic spine density; type: in vivo, mouse; settings: 400 mg/kg orally for 2 weeks
Procedure: A mouse model of autism spectrum disorder was created with the method described in Example 1.1. It is known that in autism spectrum disorder, the number of dendrites increases more than necessary due to troubles in synaptic pruning at the critical stage. Therefore, an experiment, which checks whether or not the number of dendrites can be normalized by AST-001 administration, was carried out. After oral administration of 400 mg/kg of AST-001 for 2 weeks to 3-week-old male autism spectrum disorder mice (n=8), it was checked whether or not the spine density of the synaptic dendrites was similar to that of the control group male normal mice (n=3). […] As a result, it was confirmed that oral administration of AST-001 normalizes synaptic pruning at the critical stage in autism spectrum disorder.

[7] = test system: pediatric patients having autism spectrum disorder; settings: human, in vivo
[8] = test system: mice having autism spectrum disorder; test: Sociality experiment (three-chamber) in mouse model of autism spectrum disorder; type: in vivo; settings: 500 mg/kg orally once a day for 2 weeks from age 3 weeks
Text: Pregnant C57BL/6 mice were subcutaneously injected with valproic acid (VPA) at the time when the gestation period reached 12 days. Male mice were selected from the mice that were born from the pregnant mice that were subcutaneously injected with VPA, and these were used as animals for a mouse model of autism spectrum disorder.
Since 3-week-old mice are at the critical stage, 3-week-old normal mice and 3-week-old mice having autism spectrum disorder were subjected to a sociality experiment, a social cognition experiment, and an anxiety experiment to identify the underlying features. 500 mg/kg of L-serine (hereinafter, referred to as AST-001) was orally administered for 2 weeks to mice having autism spectrum disorder, in which the underlying features had been confirmed. The mice having autism spectrum disorder, to which AST-001 had been orally administered for 2 weeks, were again subjected to a sociality experiment, a social cognition experiment, and an anxiety experiment.
A behavioral experiment, which checks whether or not an experimental mouse moves in the direction of a social object in a case where a social object (a non-familiar mouse) and a non-social object (an empty cage) are placed in both side rooms of a three-chamber having three connected rooms, was carried out (see FIG. 1A). […]

[9] = test system: mice having autism spectrum disorder; test: Individual recognition (novel object recognition, NOR) experiment; type: in vivo, mouse; settings: 180, 300, 480 or 600 mg/kg/day orally for 21 days; with increasing dosage
Procedure: Mice having autism spectrum disorder were created by the same method as in Example 1.1. The 3-week-old male mice having autism spectrum disorder were orally injected with 180, 300, 480, or 600 mg/kg/day of L-serine for 21 days and then subjected to an individual recognition test. Eight mice were used for each experimental group. Mice tend to be more interested in a novel object than a familiar object. Therefore, a novel object recognition (NOR) experiment, which is an experiment for checking whether or not mice recognize a novel object, was carried out.

With N[C@@H](CO)C(=O)O [AST-001, L-serine] the dopamine secretion [1] was “increases”, the “serious adverse events and deaths evaluated to be related” value ([2]; 52-week continuous administration) was “no serious adverse events and no deaths” and the “COVID-19 infection adverse events” value ([2]; high dose group) was 6 events. For the same compound, the “COVID-19 infection adverse events” value ([2]; low dose group) was 5 events, the “safety and drug tolerance” value [3] was “excellent safety and drug tolerance” and the spontaneous alteration [4] was “increased”. The “firing rate of the action potential, BTBR mice vs control group mice” value [5] was “similar”, the “number of dendrites (spine density of the synaptic dendrites)” value [6] was “significantly reduced and similar to that of the control group” and the “Adverse event [TEAE], Events” value [7] was 41. The “interaction time with the social object vs interaction time with the empty cage” value [8] was “significantly higher”, the “preference index for the social object” value [8] was “high” and the “discrimination index (DI)” value [9] was “increased”.

Source: patent US12478602B2, “Method for treating a disorder” (priority 2023, dated 2025)
